The data set has as its system Colon 26 adenocarcinoma cells. The note with it: intravenous; for T/C (%) volume ratio of tumor against control groups 14 days after administration: CDF1 female mouse, Colon 26. The procedure: Colon 26 adenocarcinoma cells were transplanted subcutaneously in the subaxillary region of each CDF1 female mouse. When the volume of the tumor reached around 100 mm^3, the block copolymer-drug composite obtained in Example 1 or doxorubicin hydrochloride was administered intravenously. […] The antitumor effect of the drug was judged from the number of mice showing disappearance of tumor (cured) 60 days after transplantation and the tumor proliferation inhibition ratio 14 days after administration.

Structures can show the parent of a compound that is named as a salt. Where two headings read alike, the source gives them in different places.

Data on one compound can be found in patent US20050214375A1, “Process for producing block copolymer/drug composite” (priority 2002, published 2005).

For `COc1cccc2c1C(=O)c1c(O)c3c(c(O)c1C2=O)C[C@@](O)(C(=O)CO)C[C@@H]3O[C@H]1C[C@H](N)[C@H](O)[C@H](C)O1` [Doxorubicin hydrochloride, doxorubicin hydrochloride], under “dose 19.2 mg/kg”, the “Cure/n: number of mice showing cure after 60 days observation period/number in one group” value is given as 2/10, the “Tox./n: number of mice died with toxicity/number in one group” value (shortened to “Tox./n … with toxicity/number in one group”) was 0/10 and the “T/C (%) volume ratio of tumor against control groups 14 days after administration” value (from here on “T/C (%) volume ratio of tumor”) is given as 13.5%. Where the note is “dose 24.0 mg/kg”, the “Cure/n: number of mice showing cure after 60 days observation period/number in one group” value is on record as 4/10, the “Tox./n … with toxicity/number in one group” value was 0/10 and the “T/C (%) volume ratio of tumor” value turned out to be 6.4%. In addition, under “dose 30.0 mg/kg”, the “Cure/n: number of mice showing cure after 60 days observation period/number in one group” value is on record as 3/10, the “Tox./n … with toxicity/number in one group” value is recorded as 1/10 and the “T/C (%) volume ratio of tumor” value was 9.9%.
